Measured values reported in patent publication US20120009320A1, “COMPOSITIONS COMPRISING MONATIN AND CALCIUM” (priority 2009, published 2012).
Marks after values point to notes of the source that are not given here. Peptide text beside a SMILES is read from it.

Key:
panelists = assay: Sweetness matching of monatin/salt combinations in water pH 7 and citric/citrate buffer pH 3, Examples 3-5; type: in vivo, human
Experimental: Test and reference solutions were prepared in the same medium. The SEVs of monatin/salt combinations at the appropriate concentrations were measured and compared to the SEV of monatin measured in the absence of any salts. […] Monatin-containing test samples and sucrose references were prepared in the same medium. Based on the previous observations that the sweetness of monatin relative to sucrose is sweeter at acidic pH, this study was carried out under two pH conditions; specifically, in water at pH 7-7.5 and in a citric/citrate buffer at pH 3.0. 2R,4R-Monatin mono potassium salt was used as an illustrative form of monatin for the experiments below. All monatin solutions were prepared ‘as is’, i.e., a 40 ppm monatin solution is 40 ppm of monatin mono potassium salt. A sweetness matching procedure was adopted. […] Each test sample was either monatin control or monatin plus designated salt at the stated concentration. Panelists were instructed to taste the test sample and then to identify the reference sample that matched the perceived sweetness of the test sample. If the sweetness of the test sample was judged to fall between that of two references, panelists were instructed to estimate sweetness to one decimal point. Panelists evaluated each sample in duplicate. Results for each test sample were averaged. […] The five samples were tested at pH 7 (water medium) and at pH 3 (citric/citrate buffer). […] The weight percent of calcium in the salt is different for each of the calcium salts. As such, the weight percent of the calcium salt in each sample is calculated in order to determine how much salt is needed to deliver 1200 ppm of calcium cations. […] The weight percent of the other calcium salts is similarly calculated based on the molar weight percent of calcium in the calcium salt. […] The samples were created at pH 3 and pH 7. The impact of other metal ions, specifically potassium and magnesium, (i.e. […] These ions were tested in the form and concentrations found in cow's milk.

[1] = Sweetness of monatin stereoisomers relative to sucrose by weight (from SEV); type: in vivo; settings: general statement of the description
Experimental: As used herein, “sucrose equivalency value”, or SEV, is a measure of sweetness. The SEV is the concentration (% w/v) of a sucrose solution that gives a degree of sweetness that is perceived to be the same degree of sweetness as that of a test sample. For purposes of this disclosure, the SEV of an aqueous or dairy solution containing monatin is determined through comparison of the monatin-containing solution to a series of sucrose containing solutions prepared in the same medium (see Example 1).
Monatin-containing compositions are described herein as being “X” times as sweet as sucrose. The various stereoisomers of monatin are also described as being “X” times sweeter than sucrose. These values are determined from the SEV of the compositions.

[2] = Schiffman, Physiology & Behavior 68 (2000); cited from earlier work
[3] = 200 ppm calcium (from calcium chloride), 40 ppm monatin, pH 3.0
[4] = 200 ppm calcium (from calcium chloride), 40 ppm monatin, pH 7.0
[5] = 400 ppm calcium (from calcium chloride), 40 ppm monatin, pH 3.0
[6] = 400 ppm calcium (from calcium chloride), 40 ppm monatin, pH 7.0
[7] = 800 ppm calcium (from calcium chloride), 40 ppm monatin, pH 3.0
[8] = 800 ppm calcium (from calcium chloride), 40 ppm monatin, pH 7.0
[9] = 1200 ppm calcium (from calcium chloride), 40 ppm monatin, pH 3.0
[10] = 1200 ppm calcium (from calcium chloride), 40 ppm monatin, pH 7.0
[11] = calcium salt at 1200 ppm Ca2+ with 40 ppm monatin vs monatin only, pH 3.0
[12] = calcium salt at 1200 ppm Ca2+ with 40 ppm monatin vs monatin only, pH 7.0
[13] = calcium salt at 1200 ppm Ca2+ with 40 ppm monatin, pH 3.0
[14] = calcium salt at 1200 ppm Ca2+ with 40 ppm monatin, pH 7.0
[15] = salt (1450 ppm K+ or 170 ppm Mg2+) with 40 ppm monatin vs monatin only, pH 3.0
[16] = salt (1450 ppm K+ or 170 ppm Mg2+) with 40 ppm monatin, pH 3.0, KCl solutions very salty, estimates difficult
[17] = salt (1450 ppm K+ or 170 ppm Mg++) with 40 ppm monatin vs monatin only, pH 7.0
[18] = salt (1450 ppm K+ or 170 ppm Mg++) with 40 ppm monatin, pH 7.0, KCl solutions very salty, estimates difficult

[Ca+2].[Cl-].[Cl-] [Calcium chloride]
Sucrose Equivalency Value (panelists; [3]): 9.5% | Sweetness Enhancement (panelists; [3]): 10% | Sucrose Equivalency Value (panelists; [4]): 10.0% | Sweetness Enhancement (panelists; [4]): 19% | Sucrose Equivalency Value (panelists; [5]): 10.0% | Sweetness Enhancement (panelists; [5]): 16% | Sucrose Equivalency Value (panelists; [6]): 10.2% | Sweetness Enhancement (panelists; [6]): 21% | Sucrose Equivalency Value (panelists; [7]): 10.2% | Sweetness Enhancement (panelists; [7]): 19% | Sucrose Equivalency Value (panelists; [8]): 10.2% | Sweetness Enhancement (panelists; [8]): 21% | Sucrose Equivalency Value (panelists; [9]): 10.3% | Sweetness Enhancement (panelists; [9]): 20% | Sucrose Equivalency Value (panelists; [10]): 10.1% | Sweetness Enhancement (panelists; [10]): 20% | Sweetness Enhancement (panelists; 1600 ppm calcium (from calcium chloride), 40 ppm monatin, pH 3.0): 19% | Sucrose Equivalency Value (panelists; 1600 ppm calcium (from calcium chloride), 40 ppm monatin, pH 3.0, solutions very salty, SEV estimate very difficult): 10.2** % | Sweetness Enhancement (panelists; 1600 ppm calcium (from calcium chloride), 40 ppm monatin, pH 7.0): 21% | Sucrose Equivalency Value (panelists; 1600 ppm calcium (from calcium chloride), 40 ppm monatin, pH 7.0, solutions very salty, SEV estimate very difficult): 10.2** % | Sweetness Enhancement (panelists; [11]): 20% | Sweetness Enhancement (panelists; [12]): 20% | Sucrose Equivalency Value (panelists; [13]): 10.3% | Sucrose Equivalency Value (panelists; [14]): 10.1%

CC(O)C(=O)[O-].CC(O)C(=O)[O-].[Ca+2] (stereo not drawn) [Calcium lactate]
Sweetness Enhancement (panelists; [11]): 10% | Sweetness Enhancement (panelists; [12]): 13% | Sucrose Equivalency Value (panelists; [13]): 9.5% | Sucrose Equivalency Value (panelists; [14]): 9.5%

[Cl-].[K+] [Potassium chloride]
Sweetness Enhancement (panelists; [15]): 7% | Sucrose Equivalency Value (panelists; [16]): 9.2% | Sweetness Enhancement (panelists; [17]): 4% | Sucrose Equivalency Value (panelists; [18]): 8.7%

NC(CC(O)(Cc1c[nH]c2ccccc12)C(=O)O)C(=O)O (stereo not drawn) [S,S stereoisomer of monatin, 4-amino-2-hydroxy-2-(1H-indol-3-ylmethyl)-pentanedioic acid]
times sweeter than sucrose by weight [1]: 50-200 times

COC(=O)[C@H](Cc1ccccc1)NC(=O)[C@@H](N)CC(=O)O [aspartame] (HELM PEPTIDE1{D.F.[CO[*:1]]}$$$$V2.0)
effect of the addition of calcium ions on the sweetness intensity of the sweetener [2]: did not have an effect

OC[C@H]1O[C@@](CO)(O[C@H]2O[C@H](CO)[C@@H](O)[C@H](O)[C@H]2O)[C@@H](O)[C@@H]1O [sucrose]
effect of the addition of calcium ions on the sweetness intensity of the sweetener [2]: did not have an effect

Calcium gluconate
Sweetness Enhancement (panelists; [11]): 7% | Sweetness Enhancement (panelists; [12]): 13% | Sucrose Equivalency Value (panelists; [13]): 9.2% | Sucrose Equivalency Value (panelists; [14]): 9.5%

Magnesium gluconate
Sweetness Enhancement (panelists; [15]): 6% | Sucrose Equivalency Value (panelists; [16]): 9.1% | Sweetness Enhancement (panelists; [17]): 9% | Sucrose Equivalency Value (panelists; [18]): 9.2%

calcium
Sweetness Enhancement (panelists; [3]): 10% | Sweetness Enhancement (panelists; [4]): 19%
